Key:
[1] = system: nociceptive sensitization; assay: Subject with opioid-induced increased nociceptive sensitization switched to compound (Example 4); format: in vivo; conditions: subject switched from opioid to pharmaceutical composition of compound
From the text: A subject is identified as having increased nociceptive sensitization due to being administered an opioid for pain relief. The subject is switched from the opioid to a pharmaceutical composition comprising Compound 140 or Compound 265. The subject's nociceptive sensitization is decreased while maintaining the pain relief.

[2] = system: opioid induced hyperalgesia; assay: Human subject with morphine-induced hyperalgesia switched to compound (Example 3); format: in vivo; conditions: morphine stopped, compound administered
[3] = system: mouse model of opioid induced hyperalgesia; conditions: in vivo, sc

SMILES | nociceptive sensitization after switch from opioid [1] | opioid induced hyperalgesia in human subject after stopping morphine [2] | % non-responses to 10 applications of a 0.4 g von Frey filament (hyperalgesia induction) [3]
COc1ccsc1CNCC[C@@]1(c2ccccn2)CCOC2(CCCC2)C1 [Compound 140] | decreased | treated and reduced | –
COc1ccc2c3c1O[C@H]1C(=O)CC[C@@]4(O)[C@@H](C2)N(C)CC[C@]314 [Oxycodone] | – | – | decreased the % non-responses
